Experimental findings from BindingDB's records for patent US20250236619 (Chia Tai Tianqing Pharmaceutical Group Co., 2025) are described below.

For the assay, the target named is Mitogen-activated protein kinase kinase kinase kinase 1 (Homo sapiens, UniProt Q92918). The experiment in a line: Assay for In Vitro Inhibitory Activity Against HPK1 Kinase. The protocol:
A kinase buffer (Enzymatic buffer 5×) was diluted to 1×, and 10 mM MgCl2, 1 mM DTT, and 0.005% Tween 20 were added. A 100 ng/μL HPK1 (Life technology) stock solution was diluted with the kinase buffer to obtain a 1.67×, 1.67 ng/μL working solution (final concentration: 1 ng/μL), and the working solution was seeded in a 384-well plate at 6 μL/well. Different compounds dissolved in DMSO were added to the wells using a nanoliter pipettor to obtain final concentrations of the compounds of 1000 nM to 0.244 nM (4-fold serial dilution, 7 concentrations in total), and blank control wells (without enzyme) and negative control wells (with enzyme, plus vehicle DMSO) were set; the wells were set in duplicate. After the enzyme and the compounds were incubated at room temperature for 1 h, a 5×, 5 mM ATP dilution (final concentration: 1 mM) in the kinase buffer was mixed with a 5×, […] (Cisbio, STK Substrate 1-biotin; final concentration: 500 nM) in equal volume, and the mixture was added to the plate at 4 µL/well. The plate was sealed with a film and then incubated at room temperature for 2 h. An assay antibody solution was prepared by mixing the antibody STK Antibody-cryptate (Cisbio, 5 μL/test) and a 4×, 500 nM Streptavidin-XL665 (Cisbio; final concentration: 125 nM) in equal volume and added to the plate at 10 μL/well. The plate was incubated at room temperature for 1 h. The signal values ([…]) were measured using a PE Envision multimode microplate reader, and IC50 was calculated by four-parameter fitting.

Chain of Mitogen-activated protein kinase kinase kinase kinase 1 (Q92918 whole entry): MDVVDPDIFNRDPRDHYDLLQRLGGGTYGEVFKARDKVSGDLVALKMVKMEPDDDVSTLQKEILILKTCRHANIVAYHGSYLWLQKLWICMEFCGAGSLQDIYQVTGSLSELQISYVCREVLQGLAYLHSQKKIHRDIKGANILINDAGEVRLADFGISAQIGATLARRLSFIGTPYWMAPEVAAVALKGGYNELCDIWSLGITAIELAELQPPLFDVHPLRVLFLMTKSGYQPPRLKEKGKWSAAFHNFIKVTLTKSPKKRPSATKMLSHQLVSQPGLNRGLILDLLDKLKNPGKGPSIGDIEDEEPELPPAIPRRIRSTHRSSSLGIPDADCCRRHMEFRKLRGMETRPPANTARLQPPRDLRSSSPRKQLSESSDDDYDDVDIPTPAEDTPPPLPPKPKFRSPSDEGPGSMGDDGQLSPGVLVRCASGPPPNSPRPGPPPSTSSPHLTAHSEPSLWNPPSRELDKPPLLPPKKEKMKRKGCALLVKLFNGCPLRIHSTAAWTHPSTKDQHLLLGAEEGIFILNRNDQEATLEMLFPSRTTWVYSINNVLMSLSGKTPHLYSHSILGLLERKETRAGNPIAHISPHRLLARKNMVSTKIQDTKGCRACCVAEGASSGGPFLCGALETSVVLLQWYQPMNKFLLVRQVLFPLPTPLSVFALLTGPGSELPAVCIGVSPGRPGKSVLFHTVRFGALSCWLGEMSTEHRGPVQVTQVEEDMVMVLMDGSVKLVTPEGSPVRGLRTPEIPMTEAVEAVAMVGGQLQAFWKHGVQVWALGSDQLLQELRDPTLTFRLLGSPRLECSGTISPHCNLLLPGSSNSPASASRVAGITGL

The molecule `O=C1NCc2c(-c3cnn4ccc5occc5c34)ccc(Nc3ccc(N4CCOCC4)c([C@H]4CCCN4)n3)c21` [US20250236619, Compound I-57] returned an IC50 of 17 nM.

Regarding `CN(C)Cc1nc(Nc2ccc(-c3cnc4cnc5occc5n34)c3c2C(=O)NC3)ccc1C1CCCO1` (stereo not drawn) [US20250236619, Compound I-65], the IC50 was 21 nM.

`CN(C)Cc1nc(Nc2ccc(-c3cnc4cnc5occc5n34)c3c2C(=O)NC3)ccc1C1CCOC1` (stereo not drawn) [US20250236619, Compound I-54]: half-maximal inhibition (IC50) was put at 6.6 nM.

Molecule `CN(C)Cc1nc(Nc2cnc(-c3cnn4ccc5occc5c34)c3c2C(=O)NC3)ccc1N1CCOCC1` [US20250236619, Compound I-47] returned an IC50 of 4.7 nM.

Regarding `CN(C)Cc1nc(Nc2ccc(-c3cnn4ccc5occc5c34)c3c2C(=O)NC3)ccc1C1CCCO1` (stereo not drawn) [US20250236619, Compound I-64], 2.9 nM corresponded to half-maximal inhibition (IC50).

For the molecule `CN(C)Cc1nc(Nc2ccc(-c3cnc4ccc5occc5n34)c3c2C(=O)NC3)ccc1C1CCN(C)C(=O)C1` (stereo not drawn) [US20250236619, Compound I-66], it took 2.5 nM to reach half-maximal inhibition (IC50).

Take `CN(C)Cc1nc(Nc2ccc(-c3cnn4c3CC3(CC3)C4)c3c2C(=O)NC3)ccc1C1CCN(C)C(=O)C1` (stereo not drawn) [US20250236619, Compound I-67]: the IC50 came out at 4.6 nM.

With `CN(C)Cc1nc(Nc2ccc(-c3cnc4ccc5c(n34)CCO5)c3c2C(=O)NC3)ccc1C1CCOCC1` [US20250236619, Compound I-35], the IC50 was 6.4 nM.

Turning to `[2H]C([2H])(c1nc(Nc2ccc(-c3cnn4c3CC3(CC3)C4)c3c2C(=O)NC3)ccc1C1CCOCC1)N(C)C` [US20250236619, Compound I-53], the IC50 was determined as 2.7 nM.

As for `CN(C)Cc1nc(Nc2ccc(-c3cnc4cnc5occc5n34)c3c2C(=O)NC3)ccc1C1CC(=O)N(C)C1` (stereo not drawn) [US20250236619, Compound I-58], the IC50 was 5.6 nM.

The molecule `CN(C)Cc1nc(Nc2ccc(-c3cnn4ccc5occc5c34)c3c2C(=O)NC3)ccc1C1CC(=O)N(C)C1` (stereo not drawn) [US20250236619, Compound I-59] had an IC50 of 2.3 nM.

In turn, `CN(C)Cc1nc(Nc2ccc(-c3ncnc4[nH]c5c(c34)CCC5)c3c2C(=O)NC3)ccc1C1CCOCC1` [US20250236619, Compound I-24] had an IC50 of 11 nM.

Molecule `CN(C)Cc1nc(Nc2ccc(-c3cnn4ccc5occc5c34)c3c2C(=O)NC3)ccc1N1CCN(C)C(=O)C1` [US20250236619, Compound I-76] came in with an IC50 of 1.8 nM.

As for `CN(C)Cc1nc(Nc2ccc(-c3cnc4ccc5occc5n34)c3c2C(=O)NC3)ccc1N1CCN(C)C1=O` [US20250236619, Compound I-50], the IC50 was found to be 29 nM.

`CN(C)Cc1nc(Nc2cnc(-c3nnc4ccc5c(n34)CCC5)c3c2C(=O)NC3)ccc1C1CCOCC1` [US20250236619, Compound I-25] returned an IC50 of 32 nM.

For `CN(C)Cc1nc(Nc2ccc(-c3cnc4cnc5occc5n34)c3c2C(=O)NC3)ccc1C1CCN(C)CC1` [US20250236619, Compound I-80], the IC50 is 2.8 nM.

Regarding `CN(C)Cc1nc(Nc2ccc(-c3cnn4ccc5occc5c34)c3c2C(=O)NC3)ccc1C1CCN(C)CC1` [US20250236619, Compound I-83], inhibition was half-maximal at 2 nM (IC50).

As to `CN(C)Cc1nc(Nc2cnc(-c3cnn4c3CC3(CC3)C4)c3c2C(=O)NC3)ccc1C1CCOCC1` [US20250236619, Compound I-55], inhibition was half-maximal at 15 nM (IC50).

`CN(C)Cc1nc(Nc2ccc(-c3ccnc4c3c3c(n4C)CCC3)c3c2C(=O)NC3)ccc1C1CCN(C)C(=O)C1` (stereo not drawn) [US20250236619, Compound I-84]: the IC50 is 2.6 nM.

Molecule `CN(C)Cc1nc(Nc2ccc(-c3cnn4ccc5occc5c34)c3c2C(=O)NC3)ccc1C1CCOCC1` [US20250236619, Compound I-38] registered an IC50 of 1.7 nM.

The molecule `CN(C)Cc1nc(Nc2ccc(-c3cnc4ccc5occc5n34)c3c2C(=O)NC3)ccc1N1CCCC1=O` [US20250236619, Compound I-52] displayed an IC50 of 36 nM.

The molecule `CN(C)Cc1nc(Nc2ccc(-c3cnn4c3CC3(CC3)C4)c3c2C(=O)NC3)ccc1C1CCOCC1` [US20250236619, Compound I-34] showed an IC50 of 2.1 nM.

For `CN(C)Cc1nc(Nc2ccc(-c3cnn4ccc5occc5c34)c3c2C(=O)NC3)ccc1-c1ccn(C)c(=O)c1` [US20250236619, Compound I-81], 2 nM corresponded to half-maximal inhibition (IC50).

As for `CC(=O)N(C)c1ccc(Nc2ccc(-c3cnn4ccc5occc5c34)c3c2C(=O)NC3)nc1CN(C)C` [US20250236619, Compound I-70], half-maximal inhibition (IC50) was put at 7.5 nM.

Consider `CN(C)Cc1nc(Nc2ccc(-c3cnc4cnc5occc5n34)c3c2C(=O)NC3)ccc1C1CCOCC1` [US20250236619, Compound I-48], for which the IC50 worked out at 2.6 nM.

Turning to `[2H]C([2H])(c1nc(Nc2cnc(-c3ccnc4c3c3c(n4C)CCC3)c3c2C(=O)NC3)ccc1C1CCOCC1)N(C)C` [US20250236619, Compound I-17], inhibition was half-maximal at 1.7 nM (IC50).

Molecule `CN(C)Cc1nc(Nc2cnc(-c3cnn4ccc5occc5c34)c3c2C(=O)NC3)ccc1C1CCOCC1` [US20250236619, Compound I-46] gave an IC50 of 2.1 nM.

`CNCc1nc(Nc2ccc(-c3cnn4ccc5occc5c34)c3c2C(=O)NC3)sc1C1CCOCC1` [US20250236619, Compound I-85]: the IC50 turned out to be 3.8 nM.

One may read the IC50 as the midpoint of a concentration-inhibition curve.
